The values below are quoted from earlier work in patent USRE38623E1, “Stabilization of ascorbic acid, ascorbic acid derivatives and/or extracts containing ascorbic acid for topical use” (Topix Pharmaceuticals, Inc., priority 1996, dated 2004).

Like-named read-outs stand apart in the source and are kept apart here.

Turning to `O=C1O[C@H]([C@@H](O)CO)C(O)=C1O` [L-ascorbic acid], the potency after storage (Darr '043 FIG. 1, after seven weeks, starting from 100 percent, L-ascorbic acid concentration of 1 percent) is 70%. The drop in potency result reads like this: (Darr '043 FIG. 1, seven weeks at room temperature, L-ascorbic concentrations of 3, 5 and 10 percent) “less than 10%”; (Darr '043 FIG. 1, seven weeks, L-ascorbic acid concentration of 1 percent) “approximately 30%”. In addition, the lost potency (Darr '043 FIG. 2, all four samples, eight weeks at room temperature, stored in the dark) is ≥ 10%.
